# Tested on: model of allergic rhinitis in guinea pigs
# Assay: Content of cell elements in the nasal lavage in the model of allergic rhinitis in guinea pigs
# Format: in vivo, guinea pig
# Conditions: 14 mg/kg intragastric, 3 times; nasal lavage 24 hours after last ovalbumin; n = 8
# Experimental: The model of allergic rhinitis in guinea pigs was realized by a standard method [Vishnu N. Thakare, M. M. Osama, Suresh R. Naik. […] 2013 September; 17(1):18-25].
# Guinea pigs (250-300 g) were immunized with 4-time (on days 0, 7, 14, and 21) intragastric administration of ovalbumin (100 μg/pig) and aluminium hydroxide (5 mg/pig), both of which were diluted and suspended in a physiological saline solution. […], a solution of ovalbumin (60 mg/mL) was administered intranasally to each nostril of the animals at a dose 20 μL. On day 35, the animals received subcutaneously an ovalbumin solution (200 μg/mL, 25 μL); the animal back was previously shaved in the site of administration. Swelling and redness at the injection site served as a support of sensibilisation. On day 42 of the study, an ovalbumin solution (60 mg/mL, 20 μL/nostril) was administered intranasally. A group of pseudoimmunized animals was formed to control the formation of exactly allergic inflammation: on days 0, 7, 14, and 21, the pigs received a solution of aluminium hydroxide (5 mg/pig), and on days 28 and 35, they received a physiological saline solution, and on day 42, a solution of ovalbumin (60 mg/mL, 20 μL/nostril).
# The studied compounds (14 mg/kg) were administered 3 times by the intragastric route: 48, 24, and 1 hour before the last administration of ovalbumin. The reference preparation, dexamethasone, was administered one time by the intragastric route, 3 hours before the last intranasal administration of ovalbumin.
# Clinical manifestations, such as the number of sneezes and nose scratchings, were registered for 2 hours after the last administration of ovalbumin. Nasal lavage was taken 24 hours after the last administration of ovalbumin, and in this lavage, the total lymphocyte count and leukocyte formula were determined. The number of guinea pigs in a group was 8.
smiles,measurement,value
"O=C1CCCC(=O)N1CCc1cnc[nH]1 [Compound 1, 1-(2-(1H-imidazol-4-yl)ethyl)piperidine-2,6-dione]","Eosinophils, content of cell elements in 1 μL of nasal lavage",521 ± 129& in 1 μL of nasal lavage
same,"Leukocytes, content of cell elements in 1 μL of nasal lavage",1300 ± 254& in 1 μL of nasal lavage
same,"Lymphocytes, content of cell elements in 1 μL of nasal lavage",6 ± 6 in 1 μL of nasal lavage
same,"Macrophages, content of cell elements in 1 μL of nasal lavage",405 ± 130 in 1 μL of nasal lavage
same,"Neutrophils, content of cell elements in 1 μL of nasal lavage",243 ± 58*& in 1 μL of nasal lavage
